Where two headings read alike, the source gives them in different places.
Assays:
[1] = test system: Ramos; conditions: cited from earlier work
[2] = test system: DoHH2; conditions: cited from earlier work
[3] = test system: PC3; test: Proliferation/viability assay; assay type: cell-based; conditions: Table 10, Prostate Ca, read-out: Effect on Tumor Cell Growth EC50, PC3
[4] = test system: DoHH2; test: CellTiter-Glo proliferation/viability assay; assay type: cell-based, human
[5] = test system: Ramos; test: CellTiter-Glo proliferation/viability assay; assay type: cell-based, human
[6] = test system: SuDHL6; test: Proliferation/viability assay; assay type: cell-based; conditions: Table 10, B Lymphoma, read-out: Effect on Tumor Cell Growth EC50, SuDHL6
[7] = test system: RPMI8226; test: Proliferation/viability assay; assay type: cell-based; conditions: Homo sapiens, RPMI-8226; Table 10; Myeloma; read-out: Effect on Tumor Cell Growth EC50, RPMI 8226
[8] = test system: DoHH2; test: Apoptosis by flow cytometry (Annexin V / 7AAD); assay type: cell-based, human; conditions: Table 5; positive control, concentration not given
Text: Activation of Tec family kinases including BTK, and/or Src kinase family members, regulates cell survival and cell death in normal B cells, lymphomas, and solid tumors. Apoptosis is a programmed cell death characterized by specific changes in cell morphology. […] Staurosporine was used as a positive control for apoptosis. […] Table 6 illustrates that several amino naphthyridinones induce significant apoptosis in DoHH2 cells.

[9] = test system: PC3; test: Apoptosis by flow cytometry (Annexin V / 7AAD); assay type: cell-based; conditions: Table 5; positive control, concentration not given
[10] = test system: Ramos; test: Apoptosis by flow cytometry (Annexin V / 7AAD); assay type: cell-based, human; conditions: Table 5; positive control, concentration not given
[11] = test system: phosphorylation of SFKs in Ramos cells; test: SFK phosphorylation (Tyr 416) by flow cytometry; assay type: cell-based, human; conditions: Homo sapiens, 0.3 uM, flow cytometry, SFK phosphorylated at Tyr 416, read-out: pSRC % inhibition
Method: (§1) Ramos cell lysates from stimulated and unstimulated cells were analyzed for the levels of phosphorylated SRC family members. As described in Example 82 (above), cells were pretreated for 2 hours with an amino naphthyridinones and then stimulated with anti-IgM antibody and H2O2, protein lysates were prepared, quantified and used for Western blotting. A commercially available antibody that detects Src phosphorylated at Tyr 416 (Cell Signalling) and may cross-react with other Src family members such as Lyn, Fyn, Lck, Yes and Hck when phosphorylated at equivalent sites was used for Western blot analysis. The molecular weights of SFK family members are quite similar (in the 55-60 kDa range) and different family members cannot be resolved by the conditions used for the Western blot. […] The procedure can be similarly adapted for flow cytometric analysis as with the PLC-γ2 assay in Example 82. Ramos cells were incubated with Compound 1 for 2 hrs in RPMI media with 5% FBS prior to stimulation stimulated with H2O2/anti-IgM/F(Ab) for 10 minutes. Cells were evaluated by FACS analysis using anti-pSRC antibody and FITC-conjugated goat anti-rabbit secondary antibody following overnight storage at 4° C. in BD perm/wash buffer.
Ramos cells were prepared for flow cytometry analysis as described in example 82, and stained with a commercially available antibody that detects SFK phosphorylated at Tyr 416, followed by Alexa Fluor 488 conjugated secondary antibody. […] Thus amino naphthyridinones are useful in the inhibition of the phosphorylation of SFKs.

[12] = biological target: BTK (Homo sapiens (Human), UniProt Q06187)
[13] = biological target: T1, Src (Homo sapiens (Human), UniProt P12931); conditions: read-out: Src IC50
[14] = test system: PLCγ2 phosphorylation in Ramos cells; test: PLCγ2 phosphorylation by flow cytometry; assay type: cell-based, human; conditions: Homo sapiens, flow cytometry
How it was run: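 Ramos cells starved 18 h in 1% FBS, pretreated with inhibitor 2 h, then stimulated with anti-IgM (10 ug/ml final) plus 3.3 mM H2O2 for 2 min, then cross-linking F(ab) (10 ug/ml) plus H2O2 for 8 min. Fixed, permeabilized cells stained with PE anti-phospho-PLCγ2 (Tyr1217 or Tyr759), dead cells gated out; ED50 from geometric mean fluorescence over four inhibitor concentrations.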

[15] = test system: RBL-2H3 cells; test: Degranulation (β-hexosaminidase release) colorimetric assay; assay type: cell-based; conditions: Rattus norvegicus, RBL-2H3, IgE / DNP-BSA
Text: Crosslinking of IgE receptors leads to induction of intracellular signal transduction pathways and degranulation of mast cells and basophils leading to the release of histamine, serotonin and cytokines that constitutes an allergic reaction. […] One of the factors secreted on induction of degranulation is β-hexosaminidase. A colorimetric assay using 4-nitrophenyl N-acetyl-3-D-glucosaminide (Sigma-Aldrich) as a substrate was used to estimate the amount of enzyme secreted upon degranulation. In brief, RBL-2H3 (ATCC # CRL 2256) cells were plated overnight in the presence of IgE (monoclonal anti-dinitrophenyl antibody from Sigma-Aldrich). The next day, cells were treated with compounds in cell culture media, washed and treated with DNP-BSA for 1 hour (Sigma-Aldrich) in Tyrodes's buffer to induce degranulation. The level of 3-hexosaminidase was analyzed in cell-free supernates and cell lysates and the amount of β-hexosaminidase released was calculated. EC50 values were generated using varying concentrations of inhibitors. […] Thus amino naphthyridinones can be used to inhibit immunologic functions such as degranulation.

[16] = biological target: T2, Lyn (Homo sapiens (Human), UniProt P07948); conditions: read-out: Lyn IC50
[17] = test system: PLCγ2 phosphorylation in Ramos cells; test: PLCγ2 phosphorylation by Western blotting; assay type: cell-based, human; conditions: anti-IgM/H2O2 stimulation, Tyr1217
Method: Ramos cells were cultured in RPMI 1640 media with 10% FBS and were starved overnight (18 h) in 1% FBS containing media and on the next day pretreated with inhibitor for 2 h before stimulation. Cells were stimulated to induce BTK network dependent signal transduction pathways using mouse anti-human IgM (final concentration 10 ug/ml; Invitrogen) antibodies and 3.3 mM H2O2 mixture for 2 minutes followed by F(Ab) fragment that cross-linked the anti-IgM antibody (final concentration 10 ug/ml), and 3.3 mM H2O2 for 8 minutes. Cell lysates were prepared in lysis buffer containing protease and phosphatase inhibitors, quantified using the BCA protein assay kit (Pierce) and used for Western blotting. Antibodies specifically targeted to the molecules of interest, PLCγ2 phosphorylated at Tyr1217 and total PLCγ2, (Cell Signaling Technology) were used in a standard Western blotting procedure.
Phosphorylation of PLCγ2 at Tyr1217 along with Tyr753, Tyr759 and Tyr1197 is correlated with increased PLCγ2 activity. The readout for BTK network signaling was inhibition of phosphorylation of PLCγ2 induced by the anti-IgM treatment.

[18] = biological target: T2, Lyn; test: biochemical
[19] = test system: DoHH2 cells; conditions: treated 24 hours
[20] = test system: phosphorylation of SFKs in Ramos cells; test: SFK phosphorylation (Tyr 416) by Western blotting; assay type: cell-based, human; conditions: pretreated 2 hours
Method: as §1

[21] = biological target: T1, Src; test: biochemical
[22] = Homo sapiens, DOHH-2, Table 10, B Lymphoma, read-out: Effect on Tumor Cell Growth EC50, DOHH2
[23] = Homo sapiens, Ramos, Table 10, B Lymphoma, read-out: Effect on Tumor Cell Growth EC50, Ramos
[24] = Homo sapiens, DOHH-2, 48 hrs, read-out: DoHH2 EC50
[25] = Homo sapiens, Ramos, 48 hrs, read-out: Ramos EC50

BTK, sequence (Q06187 whole entry): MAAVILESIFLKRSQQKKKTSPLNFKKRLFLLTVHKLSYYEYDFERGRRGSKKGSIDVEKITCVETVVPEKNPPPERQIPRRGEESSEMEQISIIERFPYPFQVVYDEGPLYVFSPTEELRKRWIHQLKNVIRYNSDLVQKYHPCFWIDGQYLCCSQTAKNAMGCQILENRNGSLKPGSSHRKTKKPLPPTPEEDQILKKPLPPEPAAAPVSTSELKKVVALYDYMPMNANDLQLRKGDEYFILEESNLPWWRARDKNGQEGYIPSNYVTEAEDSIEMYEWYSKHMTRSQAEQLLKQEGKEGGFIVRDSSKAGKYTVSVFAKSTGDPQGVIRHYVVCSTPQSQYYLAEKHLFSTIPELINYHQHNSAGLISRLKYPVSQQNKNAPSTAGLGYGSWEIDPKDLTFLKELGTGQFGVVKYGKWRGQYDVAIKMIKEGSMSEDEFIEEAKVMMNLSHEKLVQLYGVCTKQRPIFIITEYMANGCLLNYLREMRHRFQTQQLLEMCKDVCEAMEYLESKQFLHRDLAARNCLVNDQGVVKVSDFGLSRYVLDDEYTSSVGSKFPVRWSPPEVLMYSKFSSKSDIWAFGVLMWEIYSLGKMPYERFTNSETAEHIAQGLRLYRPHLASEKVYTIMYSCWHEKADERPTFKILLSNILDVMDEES
T2 sequence (P07948 whole entry): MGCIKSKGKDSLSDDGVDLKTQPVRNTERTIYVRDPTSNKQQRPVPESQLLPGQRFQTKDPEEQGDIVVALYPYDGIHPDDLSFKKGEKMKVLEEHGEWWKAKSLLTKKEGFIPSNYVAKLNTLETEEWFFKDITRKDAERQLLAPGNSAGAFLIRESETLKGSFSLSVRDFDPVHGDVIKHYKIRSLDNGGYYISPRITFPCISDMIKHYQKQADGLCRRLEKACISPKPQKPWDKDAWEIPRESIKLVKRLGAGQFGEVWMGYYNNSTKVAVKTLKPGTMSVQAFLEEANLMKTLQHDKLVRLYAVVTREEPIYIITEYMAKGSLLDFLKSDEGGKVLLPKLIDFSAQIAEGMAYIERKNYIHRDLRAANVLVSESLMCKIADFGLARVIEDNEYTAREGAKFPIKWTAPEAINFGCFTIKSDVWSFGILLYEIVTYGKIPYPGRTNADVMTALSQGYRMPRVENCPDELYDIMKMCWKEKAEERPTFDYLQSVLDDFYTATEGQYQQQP
T1 sequence (P12931 whole entry, looked up): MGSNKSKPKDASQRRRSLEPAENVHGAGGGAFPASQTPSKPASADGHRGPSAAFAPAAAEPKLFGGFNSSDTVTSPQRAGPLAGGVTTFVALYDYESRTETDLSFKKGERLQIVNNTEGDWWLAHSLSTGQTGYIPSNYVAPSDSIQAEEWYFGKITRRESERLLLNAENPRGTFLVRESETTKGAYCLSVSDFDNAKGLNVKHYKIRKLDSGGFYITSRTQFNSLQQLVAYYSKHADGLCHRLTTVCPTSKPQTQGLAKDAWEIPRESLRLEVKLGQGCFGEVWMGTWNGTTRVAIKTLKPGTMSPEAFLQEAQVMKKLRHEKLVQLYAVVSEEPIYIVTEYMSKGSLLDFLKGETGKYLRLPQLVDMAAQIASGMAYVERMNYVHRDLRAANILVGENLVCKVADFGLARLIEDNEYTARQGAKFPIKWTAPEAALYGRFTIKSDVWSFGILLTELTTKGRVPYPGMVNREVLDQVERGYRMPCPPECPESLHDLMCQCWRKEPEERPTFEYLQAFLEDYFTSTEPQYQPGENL

Structure (SMILES): Cc1nc(Nc2ncc(C(=O)Nc3c(C)cccc3Cl)s2)cc(N2CCN(CCO)CC2)n1 [dasatinib]
- Resistance of Ramos to known kinase inhibitors [1]: resistant
- Response of DoHH2 to known drugs [2]: responds

Structure (SMILES): Cc1ccc(NC(=O)c2ccc(CN3CC[C@H](N(C)C)C3)c(C(F)(F)F)c2)cc1Nc1nccc(-c2cncnc2)n1 [Inno-406]
- Resistance of Ramos to known kinase inhibitors [1]: resistant
- EC50 ([3]; Homo sapiens, PC-3): > 10000 nM
- EC50 [4, 22]: 6900 nM
- EC50 [5, 23]: 7300 nM
- EC50 ([6]; Homo sapiens, SU-DHL-6): 5700 nM

Structure (SMILES): C=CC(=O)N1CCC[C@@H](n2nc(-c3ccc(Oc4ccccc4)cc3)c3c(N)ncnc32)C1 [PCI-32765, ibrutinib]
- Resistance of Ramos to known kinase inhibitors [1]: resistant
- EC50 [7]: > 10000 nM
- Response of DoHH2 to known drugs [2]: responds
- EC50 ([3]; Homo sapiens, PC-3): > 10000 nM
- EC50 [4, 22]: 2800 nM
- EC50 [5, 23]: > 10000 nM
- EC50 ([6]; Homo sapiens, SU-DHL-6): 5500 nM

Structure (SMILES): CN[C@@H]1C[C@H]2O[C@@](C)([C@@H]1OC)n1c3ccccc3c3c4c(c5c6ccccc6n2c5c31)C(=O)NC4 [staurosporine, Staurosporine, reference compound]
- Percent Apoptosis DOHH2 [8]: 95.86%
- Percent Apoptosis PC3 [9]: 47.16%
- Percent Apoptosis Ramos [10]: 73.74%

Structure (SMILES): CN1CCN(CCOc2cc(OC3CCOCC3)c3c(Nc4c(Cl)ccc5c4OCO5)ncnc3c2)CC1 [AZN0530]
- Resistance of Ramos to known kinase inhibitors [1]: resistant
- EC50 [3]: > 10000 nM
- EC50 ([4]; Table 10, B Lymphoma, read-out: Effect on Tumor Cell Growth EC50, DOHH2): 2400 nM
- EC50 ([5]; Table 10, B Lymphoma, read-out: Effect on Tumor Cell Growth EC50, Ramos): > 10000 nM
- EC50 [6]: 2500 nM

Structure (SMILES): CCN(CC)CCOc1ccc(Nc2cc3c(cn2)cc(-c2c(Cl)cccc2Cl)c(=O)n3CC)nc1 [Compound 101, 3-(2,6-dichlorophenyl)-7-((5-(2-(diethylamino)ethoxy)pyridin-2-yl)amino)-1-ethyl-1,6-naphthyridin-2(1H)-one]
- inhibition at 0.3 µM [11]: 70%
- IC50 ([12]; read-out: BTK IC50): < 100 nM
- IC50 [13]: < 100 nM
- inhibition at 0.3 µM ([14]; 0.3 uM, anti-phospho PLCγ2 (Tyr759), read-out: pPLCγ % inhibition): 92%
- EC50 [15]: 950 nM
- IC50 [16]: < 100 nM
- EC50 [4, 24]: < 1000 nM
- EC50 [5, 25]: 1000 to 10000 nM

Structure (SMILES): CCN(CC)CCOc1ccc(Nc2cc3c(cn2)cc(-c2ccccc2)c(=O)n3C2CCOCC2)nc1 [Compound 70, 7-(5-(2-(diethylamino)ethoxy)pyridin-2-ylamino)-3-phenyl-1-(tetrahydro-2H-pyran-4-yl)-1,6-naphthyridin-2(1H)-one]
- IC50 [12]: 100 to 1000 nM
- IC50 ([12]; read-out: BTK IC50): 100 to 1000 nM
- Inhibition of PLCγ2 phosphorylation (Western blot) [17]: observed this inhibition
- IC50 [18]: 100 to 1000 nM
- EC50 ([14]; anti-phospho PLCγ2 (Tyr1217), four concentrations, read-out: Inhibition of phosphorylation of PLC-γ2 EC50): 330 nM
- IC50 [16]: 100 to 1000 nM
- EC50 [4, 24]: < 1000 nM
- EC50 ([4]; Homo sapiens, DOHH-2, Table 4, DoHH2 cells, read-out: EC50 (Proliferation)): < 1000 nM
- EC50 [5, 25]: > 10000 nM
- Effect on Cell Cycle [19]: G1 Arrest
- Inhibition of phosphorylation of SFKs (Western blot) [20]: dose-dependent decrease of phosphorylation of SFKs
- IC50 [21]: 100 to 1000 nM
